# Test results reported in patent US20200032271A1, “COMBINATION THERAPY WITH LIPOSOMAL ANTISENSE OLIGONUCLEOTIDES” (Bio-Path Holdings, Inc., priority 2016, published 2020).
# Where “and” joins values, the source holds several entries; their conditions need not be identical. Equal entries are not always repeated. [PEt] = P-ethoxy (ethyl phosphotriester) internucleoside linkage
# Key:
# [1] = test system: phosphorylated Erk1,2 (pErk); experiment: Flow cytometry of pErk levels in circulating leukemia cells of patients; format: in vivo, human; conditions: for pErk decrease (%) (Day 15) / pErk decrease (%) (Day 22 or end-of-treatment): individual subjects
# Description: (§1) Flow cytometry was used to determine the levels of Grb2 and pErk proteins in the circulating leukemia cells of patients who were on BP1001 single agent therapy, and were reported as median fluorescent intensity (MFI). MFI of Grb2 and pErk during treatment were compared to those at baseline.
# Peripheral blood was collected from patients in cohorts 3, 4, 5, and 6, before being dosed on Cycle 1 days 1, 8, 15 and 22, and Cycle 2 day 1. White blood cells were isolated from peripheral blood using BD Vacutainer CPT cell preparation tubes with sodium heparin (BD Dickinson), fixed and stored in −80° C. freezer. Flow cytometry was utilized to determine Grb2 and phosphorylated Erk1,2 (pErk) levels in CD33-expressing cells using a validated method (Flow Contract Site Laboratory, Bothell, Wash., USA).
# as §1, with “utilized” for “used”, “baseline (Table 7).” for “baseline.”
# [2] = Single-dose toxicity study in mice; conditions: mouse
# Experimental: Fifteen female ICR mice (5/group) were assigned to a non-injected control group (Group IV) and two treatment groups (Groups V and VI) to receive 20 and 40 mg oligo/kg, respectively, intravenously via the tail vein as a single injection. Animals were observed daily and blood was collected for hematology and clinical chemistry evaluations at two and six weeks post injection. Animals were sacrificed following blood collection at six weeks post-injection and tissues collected for gross and microscopic evaluations of organ toxicity.
# [3] = rat, in vivo, iv
# Experimental: Blood (0.3 mL) was collected through the right femoral artery at 5, 10, 20, 30, 60, 90, 120, 180, and 240 minutes following injection. After each withdrawal, the catheter was flushed with sodium heparin 1:1000 (Units/mL). Whole blood samples were extracted and assayed for ^32P radioactivity by liquid scintillation as previously described (Tani, 1998; Gutierrez-Puente, 1999). Pharmacokinetic parameters were determined by nonlinear regression analysis (Rstrip; Micro Math, Inc., Salt Lake City, Utah).
# [4] = test system: peripheral blood and bone marrow blasts; experiment: Anti-leukemia activity in patients (peripheral blood and bone marrow blasts, response); format: in vivo, human; conditions: for Bone marrow blasts (%) Nadir / Bone marrow blasts (%) Off-Rx / Peripheral blood blasts (%) Off-Rx / Peripheral blood blasts (%) Nadir: individual evaluable patients
# Experimental: Peripheral blood assessments were done at baseline (within 14 days of study start), and on days 1, 8, 15, 22, at completion of cycle one, and as clinically indicated. Bone marrow assessments were done at baseline (within 14 days of study start), at completion of cycle one, cycle 2, and as clinically indicated. Baseline cytogenetics data were obtained before treatment. Molecular analysis was conducted to detect somatic mutations on the baseline bone marrow.
# BP1001, as a single agent therapy, decreased >50% peripheral blood blasts in 9 of 21 patients, and decreased >50% bone marrow blasts in 3 of 21 patients (Table 8). […] Four patients completed 2 cycles of treatment and three patients completed 5 cycles of treatment (Table 8). These seven patients had diverse cytogenetics and molecular abnormalities such as JAK2 and NRAS mutations (Table 8). […]
# [5] = of 21 evaluable patients, single agent
substance,measurement,setting,value
"BP1001: liposome-incorporated P-ethoxy antisense oligodeoxynucleotide (5′-ATATTTGGCGATGGCTTC-3′, SEQ ID NO: 1) specific to grb2 mRNA, in neutral DOPC liposomes (DNA, all [PEt], methylation of C not given here; incorporated in neutral DOPC liposomes)",pErk decrease (%) (Day 15),"[1]; cohort 3, 20 mg/m^2",3% and 28% and 0%
same,pErk decrease (%) (Day 22 or end-of-treatment),"[1]; cohort 3, 20 mg/m^2",45% and 35% and 0%
same,pErk decrease (%) (Day 15),"[1]; cohort 4, 40 mg/m^2",82% and 0%
same,pErk decrease (%) (Day 22 or end-of-treatment),"[1]; cohort 4, 40 mg/m^2",91% and 0% and 27%
same,pErk decrease (%) (Day 15),"[1]; cohort 5, 60 mg/m^2",0% and 51% and 55%
same,pErk decrease (%) (Day 22 or end-of-treatment),"[1]; cohort 5, 60 mg/m^2",54% and 0% and 47%
same,pErk decrease (%) (Day 15),"[1]; cohort 6, 90 mg/m^2",0% and 54% and 42%
same,pErk decrease (%) (Day 22 or end-of-treatment),"[1]; cohort 6, 90 mg/m^2",0% (2×) and 63%
same,average decrease in pErk levels,[1]; last measured sample,52%
same,samples with ≥25% decrease of pErk levels,"[1]; last measured sample (end of treatment or cycle 1 day 22), MFI vs baseline",7 out of 12
same,WBC counts at six weeks post-injection,[2]; single i.v. 30 mg oligo/kg,Recovery
same,group average WBC count at six weeks,"[2]; single i.v. 40 mg oligo/kg, not statistically different than control",not fully recovered
same,morbidity or mortality,"[2]; single i.v. 15-40 mg oligo/kg, six weeks observation",No signs of morbidity or mortality
same,drug-related lesions in examined organs,[2]; single i.v. 15-40 mg/kg,no drug-related lesions
same,WBC count at two weeks post-injection,[2]; single i.v. 30 and 40 mg oligo/kg,Reduction
same,t1/2α (initial distribution phase),[3],5.16 ± 0.3 min
same,Area under the concentration curve (AUC),[3]; 10 mg/kg,5.4 ± 0.9 mg·min/mL
same,immediate apparent volume of distribution,[3]; 10 mg/kg,36.42 ± 1.88 mL
same,residence time,[3]; 10 mg/kg,309.6 ± 21.5 min
same,terminal phase half-life (t1/2β),[3]; 10 mg/kg,3.76 ± 0.22 h
same,Bone marrow blasts (%) Nadir,"[4]; 5 mg/m^2, no Ara-C",10% and 4%
same,Bone marrow blasts (%) Off-Rx,"[4]; 5 mg/m^2, no Ara-C",10% and 6%
same,Peripheral blood blasts (%) Off-Rx,"[4]; 5 mg/m^2, no Ara-C",1% and 50% and 21% and 97% and 5% and 0%
same,Bone marrow blasts (%) Nadir,"[4]; 10 mg/m^2, no Ara-C",76% and None and 38%
same,Bone marrow blasts (%) Off-Rx,"[4]; 10 mg/m^2, no Ara-C",76% and 80% and 38%
same,Peripheral blood blasts (%) Nadir,"[4]; 10 mg/m^2, no Ara-C",31% and 5% and 43%
same,Peripheral blood blasts (%) Off-Rx,"[4]; 10 mg/m^2, no Ara-C",72% and 63% and 74%
same,Bone marrow blasts (%) Nadir,"[4]; 20 mg/m^2, no Ara-C",3%
same,Peripheral blood blasts (%) Nadir,"[4]; 20 mg/m^2, no Ara-C",0%
same,Peripheral blood blasts (%) Off-Rx,"[4]; 20 mg/m^2, no Ara-C",1% and 0%
same,Bone marrow blasts (%) Nadir,"[4]; 40 mg/m^2, no Ara-C",None (2×) and 54%
same,Bone marrow blasts (%) Off-Rx,"[4]; 40 mg/m^2, no Ara-C",36% and 80%
same,Peripheral blood blasts (%) Nadir,"[4]; 40 mg/m^2, no Ara-C",3% and None (2×)
same,Peripheral blood blasts (%) Off-Rx,"[4]; 40 mg/m^2, no Ara-C",19% and 80% and 97%
same,Bone marrow blasts (%) Nadir,"[4]; 60 mg/m^2, no Ara-C",88% and None
same,Bone marrow blasts (%) Off-Rx,"[4]; 60 mg/m^2, no Ara-C",88% and 92%
same,Peripheral blood blasts (%) Nadir,"[4]; 60 mg/m^2, no Ara-C",93% and 7% and 17%
same,Peripheral blood blasts (%) Off-Rx,"[4]; 60 mg/m^2, no Ara-C",98% and 24% and 82%
same,Bone marrow blasts (%) Nadir,"[4]; 90 mg/m^2, no Ara-C",None and 22%
same,Bone marrow blasts (%) Off-Rx,"[4]; 90 mg/m^2, no Ara-C",17% and 22%
same,Peripheral blood blasts (%) Nadir,"[4]; 90 mg/m^2, no Ara-C",0% and None (2×)
same,Peripheral blood blasts (%) Off-Rx,"[4]; 90 mg/m^2, no Ara-C",0% and 42% and 92%
same,Peripheral blood blasts (%) Nadir,"[4]; BP1001 5 mg/m^2, no Ara-C",0% (2×) and 7% and 5% and 82% and 2%
same,patients with improvement of leukemia cutis,[4]; [5],two
same,patients with transient decline in blasts,[4]; [5],six
same,patients with ≥50% reduction in peripheral or bone marrow blasts,"[4]; of 21 evaluable patients, single agent (Part A)",10
same,peripheral blasts after four BP1001 infusions,"[4]; one CML blast crisis patient with T315I, from 81%",5%
same,patients with >50% decrease of bone marrow blasts,[4]; single agent therapy,3 of 21
same,patients with >50% decrease of peripheral blood blasts,[4]; single agent therapy,9 of 21
